According to patent US20240384268A1, “Oligonucleotides” (Hudson Institute of Medical Research, priority 2021, published 2024):
In the oligonucleotide strings, read from the 5' end, every base follows the letter of its sugar. An asterisk marks phosphorothioate; unmarked linkages are phosphodiester. Other units and linkages are bracketed, terminal groups are in braces. A string of capitals states the bases alone. d = 2'-deoxy (DNA); m = 2'-O-methyl

Target: T1, human TLR7 (Homo sapiens, UniProt Q9NYK1)
T1 construct: HA; host or cells: 293XL-hTLR7-HA (HEK293)
T1 sequence (Q9NYK1 27-1049): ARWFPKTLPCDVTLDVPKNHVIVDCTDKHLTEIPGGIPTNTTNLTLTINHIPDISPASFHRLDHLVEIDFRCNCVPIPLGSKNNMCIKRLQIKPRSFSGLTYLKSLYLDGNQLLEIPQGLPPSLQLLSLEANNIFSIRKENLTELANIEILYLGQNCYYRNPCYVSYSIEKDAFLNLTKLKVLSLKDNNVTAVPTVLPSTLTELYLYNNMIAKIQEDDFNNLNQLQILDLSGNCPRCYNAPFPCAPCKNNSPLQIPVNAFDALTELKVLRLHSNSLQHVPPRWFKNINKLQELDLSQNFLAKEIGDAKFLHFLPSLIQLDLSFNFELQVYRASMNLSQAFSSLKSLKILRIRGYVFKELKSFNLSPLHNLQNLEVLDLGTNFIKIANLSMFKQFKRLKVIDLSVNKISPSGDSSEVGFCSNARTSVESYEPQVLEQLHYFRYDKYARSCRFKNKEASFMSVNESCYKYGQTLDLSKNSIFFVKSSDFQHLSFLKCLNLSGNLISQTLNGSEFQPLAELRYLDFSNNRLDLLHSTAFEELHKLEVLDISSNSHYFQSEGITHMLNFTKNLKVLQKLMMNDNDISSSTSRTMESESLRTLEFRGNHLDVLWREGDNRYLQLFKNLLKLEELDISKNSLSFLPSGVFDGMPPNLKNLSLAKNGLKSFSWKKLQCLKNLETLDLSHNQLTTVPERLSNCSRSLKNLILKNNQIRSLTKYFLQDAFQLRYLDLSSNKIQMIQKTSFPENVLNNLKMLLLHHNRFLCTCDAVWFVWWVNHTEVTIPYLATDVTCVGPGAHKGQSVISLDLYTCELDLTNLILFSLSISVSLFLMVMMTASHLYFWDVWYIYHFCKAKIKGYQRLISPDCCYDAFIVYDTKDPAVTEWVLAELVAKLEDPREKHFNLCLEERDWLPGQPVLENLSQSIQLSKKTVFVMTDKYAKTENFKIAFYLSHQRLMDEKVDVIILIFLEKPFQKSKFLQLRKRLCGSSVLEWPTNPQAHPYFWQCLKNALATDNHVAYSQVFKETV
Assay: HEK-TLR7 NF-κB-luciferase reporter, R848 stimulation
Type: cell-based
Details: for TLR7 100 nM: MOE-modified ASO at 100 nM; for TLR7 100 nM / TLR7 500 nM: averaged NF-κB-Luciferase relative to R848 condition; for TLR7 500 nM: MOE-modified ASO at 500 nM; for TLR7-100 nM: averaged NF-κB-Luciferase relative to R848: HEK-TLR7, 100 nM ASO, percentage of R848 without ASO (Alharbi et al., 2020)

Substance | TLR7 100 nM | TLR7 500 nM | TLR7-100 nM: averaged NF-κB-Luciferase relative to R848
GCTGACAAAGATTCACTGGT (antisense; 2'-MOE modified, pattern not given here) [HPRT-1353 MOE] | 0.375 | 0.190 | –
mC*mC*mA*mU*mG*T*C*C*C*A*G*G*C*C*T*mC*mC*mA*mG*mU (CCAUGTCCCAGGCCTCCAGU; sugars from the 5' end m5 d10 m5, all phosphorothioate, methylation of C not given here) [[CDKN2B-AS1]2227] | – | – | 41.39%
mU*mU*mG*mG*mC*C*T*G*T*G*G*A*T*G*C*mU*mU*mU*mG*mU (mU*mU*mG*mG*mC*dC*dT*dG*dT*dG*dG*dA*dT*dG*dC*mU*mU*mU*mG*mU) [[LINC-PINT]2673.1] | – | – | 21.43%
mA*mG*mC*mC*mG*A*A*C*A*G*A*A*G*G*A*mG*mC*mG*mU*mC (AGCCGAACAGAAGGAGCGUC; sugars from the 5' end m5 d10 m5, all phosphorothioate, methylation of C not given here) [[LINC-PINT]587 KL] | – | – | 27.70%
mU*mU*mG*mU*mG*A*A*A*A*G*A*T*T*A*T*mC*mU*mU*mC*mU (mU*mU*mG*mU*mG*dA*dA*dA*dA*dG*dA*dT*dT*dA*dT*mC*mU*mU*mC*mU) [[CDKN2B-AS1]2138] | – | – | 35.02%
mA*mA*mA*mA*mU*A*A*G*G*G*G*A*A*T*A*mG*mG*mG*mG*mA (mA*mA*mA*mA*mU*dA*dA*dG*dG*dG*dG*dA*dA*dT*dA*mG*mG*mG*mG*mA; antisense) [[CDKN2B-AS1]79] | – | – | 68.45%
AGTCGTAGTTGCTTCCTAAC (antisense; 2'-MOE modified, pattern not given here) [MB21D1-1181 MOE] | 0.494 | 0.228 | –
mC*mA*mG*mG*mC*C*T*C*C*A*G*T*G*T*C*mU*mU*mC*mU*mC (mC*mA*mG*mG*mC*dC*dT*dC*dC*dA*dG*dT*dG*dT*dC*mU*mU*mC*mU*mC; antisense) [[CDKN2B-AS1]2219] | – | – | 54.11%
mG*mU*mC*mC*mG*T*A*C*C*T*C*C*A*C*C*mC″mA*mC*mC*mG [[LINC-PINT]727.1] | – | – | 22.79%
mA*mG*mA*mA*mA*G*A*A*G*C*A*A*A*G*A*mU*mU*mC*mA*mA (AGAAAGAAGCAAAGAUUCAA; sugars from the 5' end m5 d10 m5, all phosphorothioate, methylation of C not given here) [[CDKN2B-AS1]1519] | – | – | 42.99%
TGGGCTGGAATCCGAGTTAT (antisense; 2'-MOE modified, pattern not given here) [EGFR-4705 MOE] | 0.270 | 0.095 | –
GGTTTTGGCTGGGATCAAGT (antisense; 2'-MOE modified, pattern not given here) [CAMSAP1-4697 MOE] | 0.346 | 0.191 | –
mC*mA*mC*mU*mG*T*A*T*T*T*T*A*T*T*A*mC*mA*mG*mA*mA (mC*mA*mC*mU*mG*dT*dA*dT*dT*dT*dT*dA*dT*dT*dA*mC*mA*mG*mA*mA; antisense) [[LINC-PINT]2990] | – | – | 58.13%
mU*mG*mU*mU*mU*C*C*C*C*G*G*A*G*A*G*mC*mA*mA*mU*mG (UGUUUCCCCGGAGAGCAAUG; antisense; sugars from the 5' end m5 d10 m5, all phosphorothioate, methylation of C not given here) [[LINC-PINT]501 KL] | – | – | 30.90%
mA*mG*mA*mU*mU*A*T*C*T*T*C*T*T*T*T*mA*mA*mU*mU*mU (AGAUUATCTTCTTTTAAUUU; sugars from the 5' end m5 d10 m5, all phosphorothioate, methylation of C not given here) [[CDKN2B-AS1]2130] | – | – | 37.10%
mU*mC*mU*mC*mU*C*T*G*G*T*C*C*C*A*T*mC*mC*mC*mU*mU (mU*mC*mU*mC*mU*dC*dT*dG*dG*dT*dC*dC*dC*dA*dT*mC*mC*mC*mU*mU; antisense) [[LINC-PINT]110] | – | – | 43.82%
mU*mC*mC*mC*mA*T*C*C*C*T*T*C*T*G*C*mU*mG*mA*mC*mA (UCCCATCCCTTCTGCUGACA; sugars from the 5' end m5 d10 m5, all phosphorothioate, methylation of C not given here) [[LINC-PINT]101] | – | – | 43.08%
mU*mA*mA*mA*mA*T*A*A*G*G*G*G*A*A*T*mA*mG*mG*mG*mG (mU*mA*mA*mA*mA*dT*dA*dA*dG*dG*dG*dG*dA*dA*dT*mA*mG*mG*mG*mG) [[CDKN2B-AS1]80] | – | – | 40.95%
mA*mA*mU*mA*mU*C*T*G*C*T*G*C*C*C*A*mC*mC*mU*mU*mC (mA*mA*mU*mA*mU*dC*dT*dG*dC*dT*dG*dC*dC*dC*dA*mC*mC*mU*mU*mC; antisense) [[CDKN2B-AS1]832] | – | – | 43.66%
mG*mA*mU*mG*mG*T*T*C*C*A*G*T*C*C*C*mU*mC*mU*mU*mC (GAUGGTTCCAGTCCCUCUUC; antisense; sugars from the 5' end m5 d10 m5, all phosphorothioate, methylation of C not given here) [[LINC-PINT]1497.1] | – | – | 22.32%
CGGAGGTCTTGGCTTCGTGG (antisense; 2'-MOE modified, pattern not given here) [MB21D1-525 MOE] | 0.505 | 0.138 | –
mU*mG*mA*mC*mA*A*A*A*C*A*A*T*A*A*T*mA*mA*mC*mA*mG (mU*mG*mA*mC*mA*dA*dA*dA*dC*dA*dA*dT*dA*dA*dT*mA*mA*mC*mA*mG) [[LINC-PINT]384] | – | – | 36.68%
mG*mC*mA*mA*mG*G*C*A*G*A*G*A*A*A*C*mU*mC*mC*mA*mG (GCAAGGCAGAGAAACUCCAG; sugars from the 5' end m5 d10 m5, all phosphorothioate, methylation of C not given here) [[LINC-PINT]1315 KL] | – | – | 19,99%
mA*mA*mU*mU*mU*A*A*A*G*C*A*T*G*A*A*mU*mA*mU*mU*mA (mA*mA*mU*mU*mU*dA*dA*dA*dG*dC*dA*dT*dG*dA*dA*mU*mA*mU*mU*mA) [[CDKN2B-AS1]645] | – | – | 46.75%
TGGGTTACGGCTCAGTATGG (antisense; 2'-MOE modified, pattern not given here) [CAMSAP1-4295 MOE] | 0.427 | 0.167 | –
mU*mC*mU*mC*mC*A*T*G*T*C*C*C*A*G*G*mC*mC*mU*mC*mC (mU*mC*mU*mC*mC*dA*dT*dG*dT*dC*dC*dC*dA*dG*dG*mC*mC*mU*mC*mC; antisense) [[CDKN2B-AS1]2230] | – | – | 43.45%
mU*mC*mC*mC*mA*A*C*T*C*T*T*C*T*A*A*mC*mU*mC*mG*mU (mU*mC*mC*mC*mA*dA*dC*dT*dC*dT*dT*dC*dT*dA*dA*mC*mU*mC*mG*mU; antisense) [[LINC-PINT]1284 KL] | – | – | 40.79%
mG*mU*mC*mC*mC*A*G*G*C*C*T*C*C*A*G*mU*mG*mU*mC*mU (mG*mU*mC*mC*mC*dA*dG*dG*dC*dC*dT*dC*dC*dA*dG*mU*mG*mU*mC*mU; antisense) [[CDKN2B-AS1]2223] | – | – | 19.01%
